From the supplement of paper PMC10307832

Assays:
Test in all cases: relative viability (nuclei count vs DMSO), 5 days (fraction); higher = more cells survive
NCI-H1651 = test system: NCI-H1651
Outline: (§1)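 Lung cancer cell lines in 1536-well plates got either a single drug or a fixed anchor-drug dose together with five library-drug doses (not always all listed) in √10 steps, by pin tool, on the day after seeding. Nuclei were counted after 5 days, and relative viability is the treated-to-vehicle ratio of nuclei counts. Values are medians of duplicate plates.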

RERF-LC-KJ = test system: RERF-LC-KJ
Outline: as §1

NCI-H1944 = test system: NCI-H1944
Outline: as §1

NCI-H520 = test system: NCI-H520
Outline: as §1

NCI-H838 = test system: NCI-H838
Outline: as §1

NCI-H650 = test system: NCI-H650
Outline: as §1

NCI-H1623 = test system: NCI-H1623
Outline: as §1

A549 = test system: A549
Outline: as §1

SMILES: O=c1cc(N2CCOCC2)oc2c(-c3cccc4c3sc3ccccc34)cccc12 + Cc1nc(Nc2ncc(C(=O)Nc3c(C)cccc3Cl)s2)cc(N2CCN(CCO)CC2)n1 [Dasatinib] (partner 0.075 µM)
- relative viability (NCI-H1651; first compound 0.01 µM): 0.421
- relative viability (NCI-H1651; first compound 0.03162 µM): 0.414
- relative viability (NCI-H1651; first compound 0.1 µM): 0.395
- relative viability (NCI-H1651; first compound 0.3162 µM): 0.338
- relative viability (NCI-H1651; first compound 1 µM): 0.519
- relative viability (RERF-LC-KJ; first compound 0.01 µM): 0.85
- relative viability (RERF-LC-KJ; first compound 0.03162 µM): 0.918
- relative viability (RERF-LC-KJ; first compound 0.1 µM): 0.934
- relative viability (RERF-LC-KJ; first compound 0.3162 µM): 0.769
- relative viability (RERF-LC-KJ; first compound 1 µM): 0.818
- relative viability (NCI-H1944; first compound 0.01 µM): 0.218
- relative viability (NCI-H1944; first compound 0.03162 µM): 0.234
- relative viability (NCI-H1944; first compound 0.1 µM): 0.203
- relative viability (NCI-H1944; first compound 0.3162 µM): 0.24
- relative viability (NCI-H1944; first compound 1 µM): 0.225
- relative viability (NCI-H520; first compound 0.01 µM): 0.184
- relative viability (NCI-H520; first compound 0.03162 µM): 0.201
- relative viability (NCI-H520; first compound 0.1 µM): 0.231
- relative viability (NCI-H520; first compound 0.3162 µM): 0.168
- relative viability (NCI-H520; first compound 1 µM): 0.203
- relative viability (NCI-H838; first compound 0.01 µM): 0.278
- relative viability (NCI-H838; first compound 0.03162 µM): 0.301
- relative viability (NCI-H838; first compound 0.1 µM): 0.319
- relative viability (NCI-H838; first compound 0.3162 µM): 0.294
- relative viability (NCI-H838; first compound 1 µM): 0.271
- relative viability (NCI-H650; first compound 0.03162 µM): 0.493
- relative viability (NCI-H650; first compound 0.1 µM): 0.314
- relative viability (NCI-H650; first compound 0.3162 µM): 0.512
- relative viability (NCI-H650; first compound 1 µM): 0.405
- relative viability (NCI-H1623; first compound 0.01 µM): 0.456
- relative viability (NCI-H1623; first compound 0.03162 µM): 0.517
- relative viability (NCI-H1623; first compound 0.1 µM): 0.402
- relative viability (NCI-H1623; first compound 0.3162 µM): 0.5
- relative viability (NCI-H1623; first compound 1 µM): 0.438

SMILES: O=c1cc(-c2cccc3c2Sc2ccccc2S3)oc(N2CCOCC2)c1 + Cc1nc(Nc2ncc(C(=O)Nc3c(C)cccc3Cl)s2)cc(N2CCN(CCO)CC2)n1 [Dasatinib] (partner 0.075 µM)
- relative viability (NCI-H1651; first compound 0.08 µM): 0.401
- relative viability (NCI-H1651; first compound 0.253 µM): 0.457
- relative viability (NCI-H1651; first compound 0.8 µM): 0.392
- relative viability (NCI-H1651; first compound 2.53 µM): 0.312
- relative viability (NCI-H1651; first compound 8 µM): 0.387
- relative viability (RERF-LC-KJ; first compound 0.08 µM): 0.685
- relative viability (RERF-LC-KJ; first compound 0.253 µM): 0.975
- relative viability (RERF-LC-KJ; first compound 0.8 µM): 0.918
- relative viability (RERF-LC-KJ; first compound 2.53 µM): 0.758
- relative viability (RERF-LC-KJ; first compound 8 µM): 0.74
- relative viability (NCI-H1944; first compound 0.08 µM): 0.21
- relative viability (NCI-H1944; first compound 0.253 µM): 0.223
- relative viability (NCI-H1944; first compound 0.8 µM): 0.207
- relative viability (NCI-H1944; first compound 2.53 µM): 0.176
- relative viability (NCI-H1944; first compound 8 µM): 0.24
- relative viability (NCI-H520; first compound 0.08 µM): 0.181
- relative viability (NCI-H520; first compound 0.253 µM): 0.258
- relative viability (NCI-H520; first compound 0.8 µM): 0.194
- relative viability (NCI-H520; first compound 2.53 µM): 0.172
- relative viability (NCI-H520; first compound 8 µM): 0.213
- relative viability (NCI-H838; first compound 0.08 µM): 0.273
- relative viability (NCI-H838; first compound 0.253 µM): 0.283
- relative viability (NCI-H838; first compound 0.8 µM): 0.276
- relative viability (NCI-H838; first compound 2.53 µM): 0.278
- relative viability (NCI-H838; first compound 8 µM): 0.273
- relative viability (NCI-H650; first compound 0.08 µM): 0.4
- relative viability (NCI-H650; first compound 0.253 µM): 0.412
- relative viability (NCI-H650; first compound 0.8 µM): 0.506
- relative viability (NCI-H650; first compound 8 µM): 0.488
- relative viability (NCI-H1623; first compound 0.08 µM): 0.488
- relative viability (NCI-H1623; first compound 0.253 µM): 0.568
- relative viability (NCI-H1623; first compound 0.8 µM): 0.501
- relative viability (NCI-H1623; first compound 2.53 µM): 0.57
- relative viability (NCI-H1623; first compound 8 µM): 0.536

SMILES: O=c1cc(N2CCOCC2)oc2c(-c3cccc4c3sc3ccccc34)cccc12 + N=C(N)NC(=N)NCCc1ccccc1 [Phenformin] (partner 250 µM)
- relative viability (NCI-H1651; first compound 0.01 µM): 0.315
- relative viability (NCI-H1651; first compound 0.03162 µM): 0.366
- relative viability (NCI-H1651; first compound 0.1 µM): 0.352
- relative viability (NCI-H1651; first compound 0.3162 µM): 0.345
- relative viability (NCI-H1651; first compound 1 µM): 0.333
- relative viability (RERF-LC-KJ; first compound 0.01 µM): 0.429
- relative viability (RERF-LC-KJ; first compound 0.03162 µM): 0.413
- relative viability (RERF-LC-KJ; first compound 0.1 µM): 0.412
- relative viability (RERF-LC-KJ; first compound 0.3162 µM): 0.418
- relative viability (RERF-LC-KJ; first compound 1 µM): 0.427
- relative viability (NCI-H1944; first compound 0.01 µM): 0.212
- relative viability (NCI-H1944; first compound 0.03162 µM): 0.208
- relative viability (NCI-H1944; first compound 0.1 µM): 0.213
- relative viability (NCI-H1944; first compound 0.3162 µM): 0.207
- relative viability (NCI-H1944; first compound 1 µM): 0.237
- relative viability (NCI-H520; first compound 0.01 µM): 0.663
- relative viability (NCI-H520; first compound 0.03162 µM): 0.555
- relative viability (NCI-H520; first compound 0.1 µM): 0.547
- relative viability (NCI-H520; first compound 0.3162 µM): 0.672
- relative viability (NCI-H520; first compound 1 µM): 0.644
- relative viability (NCI-H838; first compound 0.01 µM): 0.473
- relative viability (NCI-H838; first compound 0.03162 µM): 0.547
- relative viability (NCI-H838; first compound 0.1 µM): 0.534
- relative viability (NCI-H838; first compound 0.3162 µM): 0.6
- relative viability (NCI-H838; first compound 1 µM): 0.543
- relative viability (A549; first compound 0.01 µM): 0.201
- relative viability (A549; first compound 0.03162 µM): 0.143
- relative viability (A549; first compound 0.1 µM): 0.0905
- relative viability (A549; first compound 0.3162 µM): 0.167
- relative viability (A549; first compound 1 µM): 0.183
- relative viability (NCI-H650; first compound 0.03162 µM): 0.484
- relative viability (NCI-H650; first compound 0.1 µM): 0.302
- relative viability (NCI-H650; first compound 0.3162 µM): 0.511
- relative viability (NCI-H650; first compound 1 µM): 0.413
- relative viability (NCI-H1623; first compound 0.01 µM): 0.565
- relative viability (NCI-H1623; first compound 0.03162 µM): 0.619
- relative viability (NCI-H1623; first compound 0.1 µM): 0.324
- relative viability (NCI-H1623; first compound 0.3162 µM): 0.585
- relative viability (NCI-H1623; first compound 1 µM): 0.545
